# Measurements reported in US9320803B2 (priority 2011, dated 2016).
# What was measured:
# [1] = pH 5.0; cited from earlier work
# [2] = Acid cleavage study of compound 14 (HPLC); assay type: physicochemical; conditions: pH 3.8 (phosphoric acid added), after 5 min at room temperature, 300 μM, reverse phase HPLC
# Description: 1 mL of a 300 μM solution of 14 in 50 mM sodium phosphate buffer was prepared and a 50 μL sample was analyzed by reverse phase HPLC (see FIG. 1A). To 400 μL of this solution was added 4 μL concentrated phosphoric acid resulting in a pH value of 3.8.
# [3] = Binding studies to hydroxyapatite; conditions: pH 7.4, 37° C., 300 μM, hydroxyapatite 30 eq
# Description: General procedure: In a falcon tube, the test compound was diluted in phosphate-buffer (4 mM Na2HPO4 containing 150 mM NaCl, pH 7.4) to obtain a solution with a concentration of 300 μM. Hydroxyapatite (30 eq) was added and the suspension was stirred well and incubated at 37° C. Another solution of the samples without hydroxyapatite was used as control. […] (4000 rpm, duration: 60 sec, Heraeus® Megafuge® 1.0) and the absorbance of the supernatant was measured with a spectrophotometer at a wavelength of 495 nm (ε495(doxorubicin)=10 650 M^−1 cm^−1). Each result represents the arithmetic average of three measurements and percent HA binding was calculated.
# cathepsin B = target: T1, cathepsin B (Homo sapiens, UniProt P07858); experiment: Cleavage studies with cathepsin B (HPLC); assay type: biochemical
# T1 construct: purchased Calbiochem, Germany
# Description: For cleavage of 16 with cathepsin B, 150 μL of a 50 mM sodium acetate buffer containing 100 mM NaCl, 4 mM EDTA Na2 and 0.15 mg L-cysteine (pH 5.0). 6.7 μL cathepsin B solution (23.8 U/mg, from Calbiochem, Germany) were added to a 100 μL solution of 16 (300 μM in 50 mM sodium phosphate buffer, pH 7.0) and the solution incubated for 1 h at 37° C.
# HPLC was carried out with a Symmetry300, C18, 5 μm (4.6×250 mm) HPLC using 15% acetonitrile and 85% 20 mM sodium phosphate buffer (pH 7.0) as mobile phase A and 30% acetonitrile and 70% 20 mM sodium phosphate buffer (pH 7.0) as mobile phase B. The gradient was 0 to 1.5 min 100% phase A, 1.5 to 20 min to 100% B, 20 min to 45 min 100% B, 45 to 55 min to 100% A. Flow 1 mL/min; injection volume: 50 μL.
# A 176 μL stock solution of compound 23 [1.5 mM] was diluted with 9 μL cathepsin B (0.4 mg/mL, 23.8 U/mg, from Calbiochem, Germany) and 264 μL of buffer (50 mM sodium acetate, 100 mM NaCl, 4 mM EDTA, pH 5.0) containing L-cysteine (8 mM). The mixture was incubated at 37° C. and aliquots (65 μL) were taken after 0 min, 20 min, 40 min, 60 min and 120 min and analyzed by HPLC. […]
# [4] = Binding studies to native bone matrix; design: species or system bovine; conditions: after 4 h, pH 7.4, 37° C., 300 μM, about 50 mg bone piece
# Description: For this binding assay, bovine bone fragments were cut into small pieces (6 mm×4 mm×1 mm). The bone pieces were left untreated, washed with water (bidest.) and with absolute ethanol and dried over night at room temperature. Then, in a falcon tube the prodrugs were dissolved in phosphate-buffer (4 mM Na2HPO4 containing 150 mM NaCl, pH 7.4) to obtain a concentration of 300 μM. Approximately 50 mg of an untreated bone piece was added to the clear red solution, and the samples were incubated under stirring at 37° C. After 4 h, the samples were centrifuged (4000 rpm, duration: 60 sec, Heraeus® Megafuge® 1.0), and the absorbance of the supernatant was measured with a spectrophotometer at a wavelength of 495 nm (ε495(doxorubicin)=10650 M^−1 cm^−1). Percent bone binding was calculated
compound,measurement,setting,value
"COc1cccc2c1C(=O)c1c(O)c3c(c(O)c1C2=O)C[C@@](O)(/C(CO)=N/NC(=O)CCCCCN1C(=O)C=CC1=O)C[C@@H]3O[C@H]1C[C@H](N)[C@H](O)[C@H](C)O1 [DOXO-EMCH, 6-maleimidocaproylhydazone derivative of doxorubicin]",acid-sensitive cleavage releasing doxorubicin,[1],cleavable at pH 5.0
COc1cccc2c1C(=O)c1c(O)c3c(c(O)c1C2=O)C[C@@](O)(/C(CO)=N/NC(=O)CCCCCN1C(=O)CC(SCCCSCC(P(=O)(O)O)P(=O)(O)O)C1=O)C[C@@H]3OC1C[C@@H](N)[C@@H](O)[C@@H](C)O1 (stereo partly shown) [compound 14],cleavage to doxorubicin,[2],rapid cleavage to doxorubicin
same,percent HA binding,[3]; after 5 h,~80%
same,percent HA binding,[3]; after one hour,approximately 50%
COc1cccc2c1C(=O)c1c(O)c3c(c(O)c1C2=O)C[C@@](O)(C(=O)CO)CC3O[C@H]1C[C@H](NC(=O)OCc2ccc(NC(=O)C(CCCCN)NC(=O)C(Cc3ccccc3)NC(=O)CCCCCN3C(=O)CC(SCCCSCC(P(=O)(O)O)P(=O)(O)O)C3=O)cc2)[C@H](O)[C@H](C)O1 (stereo partly shown) [compound 16],cleavage to doxorubicin by cathepsin B,"cathepsin B; incubation 1 h at 37° C., buffer pH 5.0, reverse phase HPLC",complete cleavage to doxorubicin
COc1cccc2c1C(=O)c1c(O)c3c(c(O)c1C2=O)C[C@@](O)(C(=O)CO)CC3O[C@H]1C[C@H](NC(=O)OCc2ccc(NC(=O)[C@H](C)NC(=O)[C@@H](NC(=O)CCCCCN3C(=O)CC(SCCCSCC(P(=O)(O)O)P(=O)(O)O)C3=O)C(C)C)cc2)[C@H](O)[C@H](C)O1 (stereo partly shown) [compound 23],percent HA binding,[3]; after 5 h,over 90%
same,percent HA binding,[3]; after 24 h,~100%
same,percent HA binding,[3]; after one hour,approximately 50%
same,cleavage to doxorubicin by cathepsin B,"cathepsin B; incubation 2 h at 37° C., pH 5.0, reversed phase HPLC",complete cleavage to doxorubicin
COc1cccc2c1C(=O)c1c(O)c3c(c(O)c1C2=O)C[C@@](O)(C(=O)CO)C[C@@H]3O[C@H]1C[C@H](N)[C@H](O)[C@H](C)O1 [doxorubicin],percent bone binding,[4],no binding
